From PubChem BioAssay AID1259407 (Chemical Carcinogenesis Research Information System (CCRIS), 2018)
Activity calls are given as the source filed them. How the calls were made is not given here.

Test system: CCRIS mutagenicity, Ames/micronucleus/aberration tests
Test: CCRIS mutagenicity studies
[1] = Test System: AMES SALMONELLA TYPHIMURIUM, Strain/Indicator: TA98, Metabolic Activation: NONE, Method: PREINCUBATION
[2] = Test System: AMES SALMONELLA TYPHIMURIUM, Strain/Indicator: TA98, Metabolic Activation: NONE, Method: STANDARD PLATE
[3] = Test System: AMES SALMONELLA TYPHIMURIUM, Strain/Indicator: TA98, Metabolic Activation: RAT, LIVER, S-9, AROCLOR 1254, Method: STANDARD PLATE
[4] = Test System: AMES SALMONELLA TYPHIMURIUM, Strain/Indicator: TA100, Metabolic Activation: NONE, Method: STANDARD PLATE
[5] = Test System: AMES SALMONELLA TYPHIMURIUM, Strain/Indicator: TA100, Metabolic Activation: RAT, LIVER, S-9, AROCLOR 1254, Method: STANDARD PLATE
[6] = Test System: AMES SALMONELLA TYPHIMURIUM, Strain/Indicator: TA100, Metabolic Activation: NONE, Method: PREINCUBATION

CCc1c(O)c(=O)ccn1CC
mutagenic call (Test System: Mouse lymphoma, Strain/Indicator: L5178Y (tk+/tk-), Metabolic Activation: None, Method: Suspension/plate): active; positive | mutagenic call (Test System: Mouse lymphoma, Strain/Indicator: L5178Y (tk+/tk-), Metabolic Activation: Rat, Liver, S-9, Aroclor 1254, Method: Suspension/plate): active; positive

Nc1ccc(-c2cc(Cl)c(N)c(Cl)c2)cc1
mutagenic call (Test System: AMES SALMONELLA TYPHIMURIUM, Strain/Indicator: TA98, Metabolic Activation: HAMSTER, LIVER, S-9, Method: PREINCUBATION): active; positive | mutagenic call [1]: inactive; negative

CCS(=O)(=O)n1ncc(Cl)c(Cl)c1=O
mutagenic call [2]: inactive; negative | mutagenic call [3]: inactive; negative | mutagenic call [4]: active; positive | mutagenic call [5]: active; positive | mutagenic call (Test System: AMES SALMONELLA TYPHIMURIUM, Strain/Indicator: TA1535, Metabolic Activation: NONE, Method: STANDARD PLATE): inactive; negative | mutagenic call (Test System: AMES SALMONELLA TYPHIMURIUM, Strain/Indicator: TA1535, Metabolic Activation: RAT, LIVER, S-9, AROCLOR 1254, Method: STANDARD PLATE): inactive; negative | mutagenic call (Test System: AMES SALMONELLA TYPHIMURIUM, Strain/Indicator: TA1537, Metabolic Activation: NONE, Method: STANDARD PLATE): inactive; negative | mutagenic call (Test System: AMES SALMONELLA TYPHIMURIUM, Strain/Indicator: TA1537, Metabolic Activation: RAT, LIVER, S-9, AROCLOR 1254, Method: STANDARD PLATE): inactive; negative

c1ccc2c(c1)cc1sc3cccc4ccc2c1c43
mutagenic call [2]: inactive; negative | mutagenic call (Test System: AMES SALMONELLA TYPHIMURIUM, Strain/Indicator: TA98, Metabolic Activation: RAT, LIVER, S-9, AROCLOR 1254 (10%), Method: STANDARD PLATE): active; positive | mutagenic call [4]: inactive; negative | mutagenic call (Test System: AMES SALMONELLA TYPHIMURIUM, Strain/Indicator: TA100, Metabolic Activation: RAT, LIVER, S-9, AROCLOR 1254 (10%), Method: STANDARD PLATE): inactive; negative

O=C(O)CCCl
mutagenic call (Test System: Ames Salmonella typhimurium, Strain/Indicator: TA98, Metabolic Activation: None, Method: Preincubation): inactive; negative | mutagenic call (Test System: Ames Salmonella typhimurium, Strain/Indicator: TA98, Metabolic Activation: Rat, Liver, S9, Sodium phenobarbital and 5,6-benzoflavone (10%), Method: Preincubation): inactive; negative | mutagenic call (Test System: Ames Salmonella typhimurium, Strain/Indicator: TA100, Metabolic Activation: None, Method: Preincubation): active; positive | mutagenic call (Test System: Ames Salmonella typhimurium, Strain/Indicator: TA100, Metabolic Activation: Rat, Liver, S9, Sodium phenobarbital and 5,6-benzoflavone (10%), Method: Preincubation): active; positive | mutagenic call (Test System: Ames Salmonella typhimurium, Strain/Indicator: TA1535, Metabolic Activation: None, Method: Preincubation): active; positive | mutagenic call (Test System: Ames Salmonella typhimurium, Strain/Indicator: TA1535, Metabolic Activation: Rat, Liver, S9, Sodium phenobarbital and 5,6-benzoflavone (10%), Method: Preincubation): active; positive | mutagenic call (Test System: Ames Salmonella typhimurium, Strain/Indicator: TA1537, Metabolic Activation: Rat, Liver, S9, Sodium phenobarbital and 5,6-benzoflavone (10%), Method: Preincubation): inactive; negative | mutagenic call (Test System: E. coli, Strain/Indicator: WP2uvrA/pKM101, Metabolic Activation: None, Method: Preincubation): active; positive | mutagenic call (Test System: E. coli, Strain/Indicator: WP2uvrA/pKM101, Metabolic Activation: Rat, Liver, S9, Sodium phenobarbital and 5,6-benzoflavone (10%), Method: Preincubation): active; positive

Cc1cc(N(C)C)ccc1N=Nc1ccccc1
mutagenic call (Test System: AMES SALMONELLA TYPHIMURIUM, Strain/Indicator: TA98, Metabolic Activation: RAT, LIVER, MICROSOMES, 2-METHYL-4-DIMETHYLAMINOAZOBENZENE, Method: PREINCUBATION): inactive; negative | mutagenic call (Test System: AMES SALMONELLA TYPHIMURIUM, Strain/Indicator: TA98, Metabolic Activation: RAT, LIVER, MICROSOMES, AROCLOR 1254, Method: PREINCUBATION): active; positive | mutagenic call (Test System: AMES SALMONELLA TYPHIMURIUM, Strain/Indicator: TA98, Metabolic Activation: RAT, LIVER, MICROSOMES, Method: PREINCUBATION): inactive; negative | mutagenic call [3]: active; positive | mutagenic call (Test System: AMES SALMONELLA TYPHIMURIUM, Strain/Indicator: TA98, Metabolic Activation: RAT, LIVER, S-9, KC500 OR PHENOBARBITAL, Method: LIQUID SUSPENSION): active; positive | mutagenic call [5]: active; positive | mutagenic call (Test System: AMES SALMONELLA TYPHIMURIUM, Strain/Indicator: TA100, Metabolic Activation: RAT, LIVER, S-9, KC500 OR PHENOBARBITAL, Method: LIQUID SUSPENSION): active; positive | mutagenic call (Test System: UDS RODENT HEPATOCYTES, Strain/Indicator: THY INCORP (NON-S-PHASE), Method: AUTORADIOGRAPHY): active; positive

CC[C@@]1(O)C[C@H](O[C@H]2C[C@H](N(C)C)[C@H](O[C@H]3C[C@H](O)[C@H](O[C@@H]4O[C@@H](C)C(=O)C=C4N)[C@H](C)O3)[C@H](C)O2)c2c(cc3c(c2O)C(=O)c2c(O)ccc(O)c2C3=O)[C@H]1C(=O)OC
mutagenic call (Test System: AMES SALMONELLA TYPHIMURIUM, Strain/Indicator: TA98, Metabolic Activation: NONE): active; positive | mutagenic call (Test System: AMES SALMONELLA TYPHIMURIUM, Strain/Indicator: TA98, Metabolic Activation: RAT, LIVER, S-9, AROCLOR 1254): active; positive

Cc1ccc(OP(=O)(Oc2ccc(C)cc2C)Oc2ccc(C)cc2C)c(C)c1
mutagenic call (Test System: AMES SALMONELLA TYPHIMURIUM, Strain/Indicator: TA98, Metabolic Activation: HAMSTER, LIVER, S-9, AROCLOR 1254 (10%), Method: PREINCUBATION): inactive; negative | mutagenic call [1]: inactive; negative | mutagenic call (Test System: AMES SALMONELLA TYPHIMURIUM, Strain/Indicator: TA98, Metabolic Activation: RAT, LIVER, S-9, AROCLOR 1254 (10%), Method: PREINCUBATION): inactive; negative | mutagenic call (Test System: AMES SALMONELLA TYPHIMURIUM, Strain/Indicator: TA100, Metabolic Activation: HAMSTER, LIVER, S-9, AROCLOR 1254 (10%), Method: PREINCUBATION): inactive; negative | mutagenic call [6]: inactive; negative | mutagenic call (Test System: AMES SALMONELLA TYPHIMURIUM, Strain/Indicator: TA100, Metabolic Activation: RAT, LIVER, S-9, AROCLOR 1254 (10%), Method: PREINCUBATION): inactive; negative | mutagenic call (Test System: AMES SALMONELLA TYPHIMURIUM, Strain/Indicator: TA1535, Metabolic Activation: HAMSTER, LIVER, S-9, AROCLOR 1254 (10%), Method: PREINCUBATION): inactive; negative | mutagenic call (Test System: AMES SALMONELLA TYPHIMURIUM, Strain/Indicator: TA1535, Metabolic Activation: NONE, Method: PREINCUBATION): inactive; negative | mutagenic call (Test System: AMES SALMONELLA TYPHIMURIUM, Strain/Indicator: TA1535, Metabolic Activation: RAT, LIVER, S-9, AROCLOR 1254 (10%), Method: PREINCUBATION): inactive; negative | mutagenic call (Test System: AMES SALMONELLA TYPHIMURIUM, Strain/Indicator: TA1537, Metabolic Activation: HAMSTER, LIVER, S-9, AROCLOR 1254 (10%), Method: PREINCUBATION): inactive; negative | mutagenic call (Test System: AMES SALMONELLA TYPHIMURIUM, Strain/Indicator: TA1537, Metabolic Activation: NONE, Method: PREINCUBATION): inactive; negative | mutagenic call (Test System: AMES SALMONELLA TYPHIMURIUM, Strain/Indicator: TA1537, Metabolic Activation: RAT, LIVER, S-9, AROCLOR 1254 (10%), Method: PREINCUBATION): inactive; negative

C[C@H](CCC(=O)O)[C@H]1CC[C@H]2[C@@H]3CC[C@@H]4CC(=O)CC[C@]4(C)[C@H]3CC(=O)[C@]12C
mutagenic call (Test System: AMES SALMONELLA TYPHIMURIUM, Strain/Indicator: TA98, Metabolic Activation: NONE, Method: FLUCTUATION TEST): inactive; negative | mutagenic call [1]: inactive; negative | mutagenic call (Test System: AMES SALMONELLA TYPHIMURIUM, Strain/Indicator: TA100, Metabolic Activation: NONE, Method: FLUCTUATION TEST): inactive; negative

CCc1ccc([N+](=O)[O-])cc1
mutagenic call [1]: inactive; negative | mutagenic call (Test System: AMES SALMONELLA TYPHIMURIUM, Strain/Indicator: TA98, Metabolic Activation: RAT, LIVER, S-9, KANECHLOR 500, Method: PREINCUBATION): inactive; negative | mutagenic call [6]: inactive; negative | mutagenic call (Test System: AMES SALMONELLA TYPHIMURIUM, Strain/Indicator: TA100, Metabolic Activation: RAT, LIVER, S-9, KANECHLOR 500, Method: PREINCUBATION): inactive; negative
